Experiment [1] has as its system TsH1. Put plainly: Compound was evaluated for the growth inhibition of TsH1 cells in an enriched eagles minimal essential medium, medium lacking aspartic acid at a concentration of 0.01 mg/mL (0.01 mM); Heavy growth. The class given is functional, cell-based. To be noted: Cricetulus griseus.
Experiment [2] has as its system TsH1. Put plainly: Compound was evaluated for the growth inhibition of TsH1 cells in an enriched […] at a concentration of 0.2 mg/mL (0.87 mM); Heavy growth. The format is functional, cell-based. To be noted: Cricetulus griseus.
The test system of experiment [3] is TsH1. Put plainly: Compound was evaluated for the growth inhibition of TsH1 cells in an enriched eagles minimal essential medium, complete medium at a concentration of 0.04 mg/mL (0.17 mM); Heavy growth. To be noted: Cricetulus griseus. The class given is functional, cell-based.
The test system of experiment [4] is TsH1. Put plainly: Compound was evaluated for the growth inhibition of TsH1 cells in an enriched eagles minimal essential medium, cmedium lacking aspartic acid at a concentration of 0.04 mg/mL (0.17 mM); Heavy growth. To be noted: Cricetulus griseus. The format is functional, cell-based.
For experiment [5], the system named is TsH1. Put plainly: Compound was evaluated for the growth inhibition of TsH1 cells in an enriched eagles minimal essential medium, medium lacking asparagine at a concentration of 1.0 mg/mL (4.34 mM); Heavy growth. To be noted: Cricetulus griseus. The class given is functional, cell-based.
Experiment [6] concerns TsH1. Put plainly: Compound was evaluated for the growth inhibition of TsH1 cells in an enriched eagles minimal essential medium, medium lacking asparagine at a concentration of 0.04 mg/mL (0.17 mM); Heavy growth. The class given is functional, cell-based. To be noted: Cricetulus griseus.
The test system of experiment [7] is TsH1. Put plainly: Compound was evaluated for the growth inhibition of TsH1 cells in an enriched eagles minimal essential medium, medium lacking aspartic acid and asparagine at a concentration of 0.04 mg/mL (0.17 mM); Heavy growth. The class given is functional, cell-based. To be noted: Cricetulus griseus.
Experiment [8] has as its system TsH1. Put plainly: Compound was evaluated for the growth inhibition of TsH1 cells in an enriched eagles minimal essential medium, medium lacking asparagine at a concentration of 0.2 mg/mL (0.87 mM); Heavy growth. The class given is functional, cell-based. To be noted: Cricetulus griseus.
Experiment [9] deals with TsH1. Put plainly: Compound was evaluated for the growth inhibition of TsH1 cells in an enriched eagles minimal essential medium, complete medium at a concentration of 0.2 mg/mL (0.87 mM); Heavy growth. The format is functional, cell-based. To be noted: Cricetulus griseus.
For experiment [10], the system named is TsH1. Put plainly: Compound was evaluated for the growth inhibition of TsH1 cells in an enriched eagles minimal essential medium, complete medium at a concentration of 1.0 mg/mL (4.34 mM); Heavy growth. The class given is functional, cell-based. To be noted: Cricetulus griseus.
The test system of experiment [11] is TsH1. Put plainly: Compound was evaluated for the growth inhibition of TsH1 cells in an enriched eagles minimal essential medium, medium lacking aspartic acid and asparagine at a concentration of 0.2 mg/mL (0.87 mM); Heavy growth. The format is functional, cell-based. To be noted: Cricetulus griseus.
Experiment [12] concerns the target T1, Asparagine synthetase [glutamine-hydrolyzing] (Rattus norvegicus) (UniProt P49088).
T1 sequence (whole entry): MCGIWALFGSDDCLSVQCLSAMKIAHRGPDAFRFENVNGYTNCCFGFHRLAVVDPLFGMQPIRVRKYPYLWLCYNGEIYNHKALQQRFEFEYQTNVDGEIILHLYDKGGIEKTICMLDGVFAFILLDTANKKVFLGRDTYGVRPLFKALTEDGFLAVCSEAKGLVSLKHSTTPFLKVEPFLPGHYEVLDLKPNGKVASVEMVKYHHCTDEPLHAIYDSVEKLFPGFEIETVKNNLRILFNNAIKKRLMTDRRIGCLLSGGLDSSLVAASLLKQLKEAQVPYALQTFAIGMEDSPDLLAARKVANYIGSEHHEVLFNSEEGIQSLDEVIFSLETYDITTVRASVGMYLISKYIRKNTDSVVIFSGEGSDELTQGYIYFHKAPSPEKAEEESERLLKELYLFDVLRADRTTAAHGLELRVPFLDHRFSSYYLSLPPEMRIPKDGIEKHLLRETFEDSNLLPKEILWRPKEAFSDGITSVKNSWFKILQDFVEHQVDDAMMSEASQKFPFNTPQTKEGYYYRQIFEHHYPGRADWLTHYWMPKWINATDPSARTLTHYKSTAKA
Put plainly: Inhibition of asparagine synthetase from partially purified rat Novikoff hepatoma at a final concentration of 1 mM.

In experiment [13] the test system is TsH1. Put plainly: Compound was evaluated for the growth inhibition of TsH1 cells in an enriched eagles minimal essential medium, medium lacking asparagine at a concentration of 0.01 mg/mL (0.01 mM); Heavy growth. The class given is functional, cell-based. To be noted: Cricetulus griseus.
Experiment [14] has as its system TsH1. Put plainly: Compound was evaluated for the growth inhibition of TsH1 cells in an enriched eagles minimal essential medium, medium lacking aspartic acid and asparagine at a concentration of 0.01 mg/mL (0.01 mM); Heavy growth. The format is functional, cell-based. To be noted: Cricetulus griseus.
The test system of experiment [15] is TsH1. Put plainly: Compound was evaluated for the growth inhibition of TsH1 cells in an enriched eagles minimal essential medium, complete medium at a concentration of 0.01 mg/mL (0.01 mM); Heavy growth. To be noted: Cricetulus griseus. The class given is functional, cell-based.
Experiment [16] has as its system TsH1. Put plainly: Compound was evaluated for the growth inhibition of TsH1 cells in an enriched eagles minimal essential medium, medium lacking aspartic acid at a concentration of 1.0 mg/mL (4.34 mM); Heavy growth. The format is functional, cell-based. To be noted: Cricetulus griseus.
Experiment [17] concerns TsH1. Put plainly: Compound was evaluated for the growth inhibition of TsH1 cells in an enriched eagles minimal essential medium, medium lacking aspartic acid and asparagine at a concentration of 1.0 mg/mL (4.34 mM); Heavy growth. The class given is functional, cell-based. To be noted: Cricetulus griseus.
The subject of experiment [18] is TsH1. Put plainly: Compound was evaluated for the growth inhibition of TsH1 cells in an enriched eagles minimal essential medium, medium lacking aspartic acid and asparagine at a concentration of 0.01 mg/mL (0.03 mM); Medium growth. The format is functional, cell-based. To be noted: Cricetulus griseus.
The subject of experiment [19] is TsH1. Put plainly: Compound was evaluated for the growth inhibition of TsH1 cells in an enriched eagles minimal essential medium, medium lacking aspartic acid at a concentration of 0.2 mg/mL (0.65 mM); Light growth. The format is functional, cell-based. To be noted: Cricetulus griseus.
The test system of experiment [20] is TsH1. Put plainly: Compound was evaluated for the growth inhibition of TsH1 cells in an enriched eagles minimal essential medium, medium lacking aspartic acid and asparagine at a concentration of 0.2 mg/mL (0.65 mM); Cells dead. The class given is functional, cell-based. To be noted: Cricetulus griseus.
For experiment [21], the system named is TsH1. Put plainly: Compound was evaluated for the growth inhibition of TsH1 cells in an enriched eagles minimal essential medium, medium lacking asparagine at a concentration of 0.01 mg/mL (0.03 mM); Heavy growth. The class given is functional, cell-based. To be noted: Cricetulus griseus.
The test system of experiment [22] is TsH1. Put plainly: Compound was evaluated for the growth inhibition of TsH1 cells in an enriched eagles minimal essential medium, complete medium at a concentration of 0.2 mg/mL (0.65 mM); Light growth. The format is functional, cell-based. To be noted: Cricetulus griseus.
In experiment [23] the test system is TsH1. Put plainly: Compound was evaluated for the growth inhibition of TsH1 cells in an enriched eagles minimal essential medium, medium lacking aspartic acid and asparagine at a concentration of 0.04 mg/mL (0.13 mM); Heavy growth. The format is functional, cell-based. To be noted: Cricetulus griseus.
Experiment [24] concerns TsH1. Put plainly: Compound was evaluated for the growth inhibition of TsH1 cells in an enriched eagles minimal essential medium, complete medium at a concentration of 0.01 mg/mL (0.03 mM); Heavy growth. The format is functional, cell-based. To be noted: Cricetulus griseus.
Experiment [25] deals with TsH1. Put plainly: Compound was evaluated for the growth inhibition of TsH1 cells in an enriched eagles minimal essential medium, medium lacking aspartic acid and asparagine at a concentration of 1.0 mg/mL (3.27 mM); Cells dead. The format is functional, cell-based. To be noted: Cricetulus griseus.
In experiment [26] the test system is TsH1. Put plainly: Compound was evaluated for the growth inhibition of TsH1 cells in an enriched eagles minimal essential medium, medium lacking aspartic acid at a concentration of 1.0 mg/mL (3.27 mM); Cells dead. The class given is functional, cell-based. To be noted: Cricetulus griseus.
Experiment [27] relates to TsH1. Put plainly: Compound was evaluated for the growth inhibition of TsH1 cells in an enriched eagles minimal essential medium, medium lacking asparagine at a concentration of 0.2 mg/mL (0.65 mM); Cells dead. The format is functional, cell-based. To be noted: Cricetulus griseus.
Experiment [28] deals with TsH1. Put plainly: Compound was evaluated for the growth inhibition of TsH1 cells in an enriched eagles minimal essential medium, medium lacking aspartic acid at a concentration of 0.04 mg/mL (0.13 mM); Heavy growth. The format is functional, cell-based. To be noted: Cricetulus griseus.
The test system of experiment [29] is TsH1. Put plainly: Compound was evaluated for the growth inhibition of TsH1 cells in an enriched eagles minimal essential medium, medium lacking aspartic acid at a concentration of 0.01 mg/mL (0.03 mM); Heavy growth. The format is functional, cell-based. To be noted: Cricetulus griseus.
For experiment [30], the system named is TsH1. Put plainly: Compound was evaluated for the growth inhibition of TsH1 cells in an enriched eagles minimal essential medium, medium lacking asparagine at a concentration of 1.0 mg/mL (3.27 mM); Cells dead. The format is functional, cell-based. To be noted: Cricetulus griseus.
Experiment [31] concerns TsH1. Put plainly: Compound was evaluated for the growth inhibition of TsH1 cells in an enriched eagles minimal essential medium, medium lacking asparagine at a concentration of 0.04 mg/mL (0.13 mM); Heavy growth. The class given is functional, cell-based. To be noted: Cricetulus griseus.
Experiment [32] deals with TsH1. Put plainly: Compound was evaluated for the growth inhibition of TsH1 cells in an enriched eagles minimal essential medium, complete medium at a concentration of 0.04 mg/mL (0.13 mM); Heavy growth. To be noted: Cricetulus griseus. The format is functional, cell-based.
Experiment [33] has as its system TsH1. Put plainly: Compound was evaluated for the growth inhibition of TsH1 cells in an enriched eagles minimal essential medium, complete medium at a concentration of 1.0 mg/mL (3.27 mM); Cells dead. The class given is functional, cell-based. To be noted: Cricetulus griseus.
The target of experiment [34] is T1, Asparagine synthetase [glutamine-hydrolyzing] (Rattus norvegicus). Put plainly: Inhibition of asparagine synthetase from partially purified rat Novikoff hepatoma at a final concentration of 2 mM.

For `CCOC(=O)/C=C/C(=O)NCC(N)C(=O)O` (stereo not given), the Growth inhibition entry in the experiment on TsH1 [1], with TsH1 [2], in the experiment with TsH1 [3], with TsH1 [4], in the experiment on TsH1 [5] and in the experiment with TsH1 [6] was “Heavy Growth” each time. Further, the Growth inhibition entry in the experiment on TsH1 [7], in the experiment on TsH1 [8], with TsH1 [9], in the experiment on TsH1 [10], with TsH1 [11] and in the experiment with TsH1 [13] was “Heavy Growth” throughout. For the same compound, the Growth inhibition entry with TsH1 [14], in the experiment with TsH1 [15], with TsH1 [16] and with TsH1 [17] was “Heavy Growth” throughout. In experiment [12], this compound had an inhibition of 37.4%.

For `NC(CNC(=O)CBr)C(=O)O` (stereo not given), the Growth inhibition entry was “Medium Growth” with TsH1 [18]; “Light growth” in the experiment with TsH1 [19]; “Not toxic” in the experiment with TsH1 [20]; “Heavy Growth” in the experiment with TsH1 [21]; “Light growth” in the experiment with TsH1 [22]; “Heavy Growth” with TsH1 [23]. For the same compound, the Growth inhibition entry is “Heavy Growth” in the experiment with TsH1 [24]; “Not toxic” in the experiment with TsH1 [25]; “Not toxic” with TsH1 [26]; “Not toxic” with TsH1 [27]; “Heavy Growth” in the experiment with TsH1 [28]; “Heavy Growth” in the experiment with TsH1 [29]. Further, the Growth inhibition result is “Not toxic” with TsH1 [30], “Heavy Growth” with TsH1 [31], “Heavy Growth” in the experiment with TsH1 [32] and “Not toxic” in the experiment with TsH1 [33]. For the same compound, the inhibition in [12] was 93%.

Take `NCC(N)C(=O)O` (stereo not given): the inhibition in experiment [34] turned out to be 0%.

(Values after ChEMBL document CHEMBL1121869, “Potential inhibitors of L-asparagine biosynthesis. 5. Electrophilic amide analogues of (S)-2,3-diaminopropionic acid” (J Med Chem, 1981).)
